Consider one compound from patent US20240360091A1, “GLUN2B-SUBUNIT SELECTIVE ANTAGONISTS OF THE N-METHYL-D-ASPARTATE RECEPTORS WITH ENHANCED POTENCY AT ACIDIC PH” (Emory University, priority 2021, published 2024).

Molecules are shown by their SMILES.

What is called Ki is a measure of affinity in units of concentration, obtained from inhibition or displacement. The IC50 is the concentration that gives 50% inhibition. A low value points to greater potency in that assay. Usually ED50 stands for the dose that gives a 50% effect, or the effect in half of the subjects.

Data set [1] has as its target T1, 5-HT2A (Homo sapiens (Human), UniProt P28223). Kind of data set: Off-target radioligand binding displacement (NIMH PDSP). As to conditions: pH 7.4.
Experimental: Briefly, the compound was submitted to the NIMH PDSP and screened at a single concentration (10 μM) of test article under equilibrium conditions for ability to displace specific radioligands from binding to their targets expressed in mammalian cell membranes in vitro. Each receptor target was assayed in quadruplicate and the % inhibition of radioligand binding at each target determined at pH 7.4. […]
For data set [2], the system named is motor coordination of mice on rotarod. Kind of data set: Rotarod performance. It is filed as in vivo, mouse. As to conditions: for rotarod impairment: all four trials. The procedure:
The locomotor and rotarod studies were approved by the Georgia State University IACUC, an AAALAC accredited institution under the supervision of licensed veterinarians. Mice were group housed, provided nestlets and shelters with access to food pellets and water ad libitum under a 12-hour light/dark cycle.
For rotarod experiments, male C57BL/6 mice (>90 days old) were tested using a Rotamax 4/8 rotarod (Columbus Instruments, Columbus, Ohio). Prior to training and testing, the mice were brought to the testing room and allowed to acclimate for two hours prior to any further handling. Mice were placed on a rotating rod (5 rpm), 3.8 cm in diameter and 8 cm wide, elevated 30 cm from the floor of a chamber. After 10 sec of rotation at a fixed velocity, the rotation was slowly accelerated from 5 to 35 rpm over a 5 min period. The duration of time that the mouse could stay on the rotarod, without hanging on for a full rotation or without falling, was recorded. Mice were trained 4 times at 25 min inter-trial intervals on each day for two days. On day three, mice were randomly assigned to treatment groups and administered test drug or vehicle (via IP administration) 25 min prior to testing (4 trials with inter-trial interval of 25 min). Individuals performing the experiment were blinded to the identity of each treatment group. Results were analyzed by ANOVA and Dunnett's post hoc test to compare duration of time on the rotating rod of drug-treated groups to the vehicle controls.
For orientation: In the rotarod test animals must keep their balance on a rotating rod.

In data set [3] the target is T1, 5-HT2A. Kind of data set: Functional agonism/antagonism, IP1 HTRF in HEK293 cells. It is filed as cell-based. The protocol:
These receptor targets include the 5-HT2A receptor, the functional study of which was performed at pH 7.4 (Porter, et al., Br J Pharmacol, 1999, 128:13-20; CEREP, France). […] Separate wells stimulated with 10 μM serotonin served as a positive control. […] The cells were stimulated with 100 nM serotonin.
(TR-FRET usually uses a lanthanide donor and a delayed reading to cut background.)

The target in data set [4] is GluN2D (Homo sapiens (Human), UniProt O15399). Kind of data set: Two electrode voltage-clamp recordings, single concentration, GluN2D. Particulars: pH 6.9. It is filed as cell-based.
Data set [5] relates to MCAO model of transient ischemia in mice. Kind of data set: In vivo model of transient focal ischemia, middle cerebral artery occlusion (MCAO). As to conditions: for infarct volume: 24 hours post reperfusion. On the set-up: species or system mouse. The protocol: All protocols involving animals were approved by the Georgia State University IACUC, an AAALAC accredited program, and was under the supervision of a licensed veterinarian. Mice were group housed, provided nestlets and shelters with access to food pellets and water ad libitum under a 12-hour light/dark cycle. Mice were brought to a separate room and housed for at least 30 min prior to initiation of the surgery.
Mice (C57B16, >90 days old, Jackson Labs) were subjected to transient (60 min) middle cerebral artery occlusion (MCAO) and the infarct volume measured 24 hours post reperfusion, similar as previously described (Yuan, et al., Neuron, 2015, 85(6):1305-1318). Male mice were used for this experiment to reduce potential confound by progesterone variation through estrous cycles, which can have neuroprotective actions. Briefly, transient ischemia was induced in anesthetized (2% isoflurane/98% O2) mice by insertion of an intraluminal suture into the MCA for 60 minutes (Junge, et al., Proc NatlAcad Sci USA, 2003, 100: 13019-13024). The body temperature of each mouse was monitored with a rectal thermometer and maintained at 37° C. through use of a homeothermic blanket. Changes in local cerebral blood flow were monitored with a laser Doppler flowmeter probe (Perimed) secured via glue to the skull 4-6 mm lateral and 2 mm posterior of bregma. An 11-mm 5-0 Dermalon or Look (SP185) black nylon non-absorbable suture with the tip flame-rounded was introduced into the left internal carotid artery through the external carotid artery stump up to 10.5-11 mm of suture insertion. Only mice with a reduction in blood flow to <20% for 60 min and with recovery of blood flow to >90% following removal of the suture were progressed to complete the study. Following the occlusion period, mice were placed back in their cages on a warming blanket (37° C.) for several hours and monitored for righting reflex and ability to ambulate upon a gentle touch. At 24 hours post occlusion, mice were euthanized by isoflurane overdose, the brain quickly removed and cut into 2 mm sections and incubated in 2% 2,3,5-triphenyltetrazolium chloride (TTC) in phosphate buffered saline (pH 7.4) at 37° C. for 20 min, then placed at 4° C. for imaging. The infarct area was then measured using the NIH IMAGE software (Scion Corporation, Beta 4.0.2 release). The lesioned area of each section was determined by digital threshold reductions in TTC staining to ≤20% lower intensity than that observed in the contralateral cortex. The infarct region was then manually outlined with a curser and the cubic volume of the infarct determined for each slice, then summed across all four slices from each animal to obtain total infarct volume. […]

T1 sequence (P28223 whole entry): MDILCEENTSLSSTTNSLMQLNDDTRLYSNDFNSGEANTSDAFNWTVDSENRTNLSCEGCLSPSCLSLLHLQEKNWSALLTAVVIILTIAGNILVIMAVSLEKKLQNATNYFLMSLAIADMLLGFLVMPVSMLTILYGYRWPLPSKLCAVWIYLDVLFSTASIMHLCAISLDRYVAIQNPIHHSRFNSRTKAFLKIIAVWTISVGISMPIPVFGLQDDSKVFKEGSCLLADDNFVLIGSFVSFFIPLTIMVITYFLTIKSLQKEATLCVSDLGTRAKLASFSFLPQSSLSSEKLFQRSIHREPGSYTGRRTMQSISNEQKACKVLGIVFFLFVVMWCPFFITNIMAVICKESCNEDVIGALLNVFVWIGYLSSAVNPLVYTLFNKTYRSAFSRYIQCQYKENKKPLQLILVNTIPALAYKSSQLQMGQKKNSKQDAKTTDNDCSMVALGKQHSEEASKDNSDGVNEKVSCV
GluN2D, sequence (O15399 28-1336, other chains not shown): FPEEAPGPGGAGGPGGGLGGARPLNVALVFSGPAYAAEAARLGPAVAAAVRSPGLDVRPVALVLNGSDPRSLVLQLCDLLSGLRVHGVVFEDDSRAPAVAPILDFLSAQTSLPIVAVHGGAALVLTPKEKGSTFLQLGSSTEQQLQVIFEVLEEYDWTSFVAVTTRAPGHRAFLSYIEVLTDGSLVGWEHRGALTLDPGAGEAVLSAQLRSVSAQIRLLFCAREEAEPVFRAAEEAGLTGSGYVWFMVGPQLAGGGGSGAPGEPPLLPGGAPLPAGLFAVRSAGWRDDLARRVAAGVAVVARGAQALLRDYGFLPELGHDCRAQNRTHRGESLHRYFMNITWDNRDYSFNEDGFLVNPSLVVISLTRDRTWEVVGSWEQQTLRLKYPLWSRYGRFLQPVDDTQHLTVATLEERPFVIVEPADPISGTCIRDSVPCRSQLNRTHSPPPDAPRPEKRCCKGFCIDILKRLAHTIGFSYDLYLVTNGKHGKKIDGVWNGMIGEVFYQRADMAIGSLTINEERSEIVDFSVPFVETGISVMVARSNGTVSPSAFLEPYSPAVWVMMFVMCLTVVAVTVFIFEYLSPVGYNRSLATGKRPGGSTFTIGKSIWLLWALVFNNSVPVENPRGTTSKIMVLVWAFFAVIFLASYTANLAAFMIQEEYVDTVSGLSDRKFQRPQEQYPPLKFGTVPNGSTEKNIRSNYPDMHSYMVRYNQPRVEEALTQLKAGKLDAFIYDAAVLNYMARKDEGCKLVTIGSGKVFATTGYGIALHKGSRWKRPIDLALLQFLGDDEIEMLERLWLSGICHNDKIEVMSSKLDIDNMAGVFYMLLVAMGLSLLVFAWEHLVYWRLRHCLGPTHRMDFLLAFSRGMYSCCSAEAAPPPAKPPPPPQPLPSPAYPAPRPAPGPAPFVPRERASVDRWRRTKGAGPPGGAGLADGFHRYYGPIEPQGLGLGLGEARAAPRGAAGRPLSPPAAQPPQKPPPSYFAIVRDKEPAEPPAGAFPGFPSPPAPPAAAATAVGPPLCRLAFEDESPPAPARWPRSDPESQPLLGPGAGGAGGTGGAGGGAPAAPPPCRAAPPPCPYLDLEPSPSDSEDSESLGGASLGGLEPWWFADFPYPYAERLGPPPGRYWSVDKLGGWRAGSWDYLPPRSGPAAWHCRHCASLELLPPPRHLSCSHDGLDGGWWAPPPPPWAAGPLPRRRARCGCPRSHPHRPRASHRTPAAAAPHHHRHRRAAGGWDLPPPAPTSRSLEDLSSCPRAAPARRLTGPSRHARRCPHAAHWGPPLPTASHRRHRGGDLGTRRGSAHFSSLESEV

In turn, `O=C1CCc2cc(OC[C@H](O)CN3CCN(c4ccc(C(F)(F)F)cc4)CC3)ccc2N1` [NP10679] showed a Ki in data set [1] of 0.638 µM. Moreover, the rotarod impairment entry in data set [2] (2 mg/kg IP) and in data set [2] (5 mg/kg IP) was “no significant impairment” in each case. The compound further showed a latency to fall in data set [2] (10 mg/kg IP, fourth trial) of 87 ± 13 s. Besides, the “latency to fall, change from the vehicle control” value in data set [2] (10 mg/kg IP, trials 1, 2, or 3) is listed as “no statistically significant change”. Besides, the “functional agonism or antagonism at 5-HT2A” value in data set [3] (pH 7.4) is “behaved as an antagonist”. In data set [3] (pH 7.4, antagonism vs 100 nM serotonin), this compound registered an IC50 of 1.71 µM. Also, the “off-target inhibition against GluN2D” value in data set [4] (3 μM) is given as “no noticeable off-target inhibition”. Further, in data set [4] (% current remaining after 3 μM compound), the GluN2D % residual is 98.3 (pH 6.9) %. Moreover, the figures for the infarct volume in data set [5] (5 mg/kg IP) and in data set [5] (10 mg/kg IP) were 56±6.6 mm^3 and 49±3.0 mm^3, respectively. Moreover, the “maximum infarct volume reduction” value in data set [5] (IP dose prior to 60 min MCAO) is 52%. Also, in data set [5] (Mus musculus, 1 h, IP dose prior to 60 min MCAO, read-out: ED50 for infarct volume reduction), the median effective dose (ED50) worked out at 1 mg/kg.
